In patent US20200206198A1, “CFTR CHANNEL ACTIVATOR FOR USE IN THE TREATMENT AND/OR PREVENTION OF GLUTEN SENSITIVITY CONDITIONS” (priority 2017, published 2020):

Tests used:
TG2 / NBD1 = experiment: Cell-free system with recombinant TG2, NBD1 and synthetic peptide (native PAGE); assay type: biochemical; settings: Ca2+-activated TG2
Procedure: FIG. 5: a, Immunoprecipitation of TG2 protein 15 in Caco-2 cells challenged with P57-68, PGAV or P31-43 and blotted with HRP-streptavidin. b, Immunoprecipitation of CFTR protein in Caco-2 cells challenged with P31-43 in the presence of absence of the TG2 inhibitor ZDON or TG2 RNA silencing and 20 blotted with anti-isopeptide glutamime-lysine and anti-TG2 antibodies. c, Recombinant TG2 and/or NBD1 incubated in vitro with P31-43 and solved in native page in the presence or absence of Ca2+. d, Immunoprecipitation of CFTR protein and immunblot with anti-CFTR antibodies or anti-TG2 antibodies. e, Immunoprecipitation of CFTR protein and immunoblot with anti-TG2 or anti-CFTR antibodies; effects of ZDON and BAPTA-AM. f, In situ detection of TG2 activity in Caco-2 cells pulsed with Ca2+ in the presence or absence of VX-770 or Z-DON. Activity assay by immunoblotting of the TG-catalyzed incorporation of 5-biotinamidopentylamine (BAP) and blotting with anti-biotin antibody. g, In situ TG2 activity assay, by immunostaining of the TG-catalysed incorporation of monodansylcadaverin, on Caco-2 cells pre-incubated with VX-770 or Z-DON and then pulsed with P31-43. Scale bar 50 μm. h, Immunoprecipitation of PKAr2a protein and immunoblot with isopeptide glutamime-lysine antibody in Caco-2 cells challenged with P57-68 or P31-43 in the absence or presence of VX-770. (i,j). […]

NBD1 ATPase activity = NBD1 ATPase activity (malachite green kit); assay type: biochemical, human
Procedure: The measurement of NBD1 ATPase activity was performed with a malachite green based kit supplied by Sigma (cod. MAK113) in accordance with the manufacturer's instructions. The enzyme activity was measured at 620 nm at room temperature using a Multiskan 96 well plates reader.

[1] = system: recombinant human NBD1 (rhNBD1); experiment: Surface plasmon resonance peptide-protein interaction; assay type: binding
Procedure: Peptide-protein interactions were studied using a Biacore™ T100 (GE Healthcare) instrument. hrNBD1 domain or the indicated biotinylated peptides were immobilized by thiol coupling on a CMS (series S) sensor chip to a final density of 2000 resonance units (RU) or by biotin-streptavidin capture on a SA (series S) sensor chip to a final density of 250 RU, respectively. A flow cell with no immobilized protein or peptide was used as control. Binding analysis was carried out at 20° C. in a running buffer consisting of 10 mM HEPES, pH 7.4, 150 mM NaCl, 0.05% (v/v) Tween-20, 2 mM ATP, 5 mM MgCl2, 1 mM DTT applying a flow rate of 20 μl/min. For each experiment a Biacore™ method program was used. It included a series of three start up injections (running buffer), zero control (running buffer) and different concentrations of ligand. […] Each sensorgram (time-course of the surface plasmon resonance signal) was corrected for the response obtained in the control flow cell and normalized to baseline. Data were analysed using the 2.0.3 BIAevaluation software (GE Healthcare). At least three independent experiments for each analysis were performed.
FIG. 2: a, Protein-Protein docking and Molecular Dynamics of P31-43 (violet) bound to NBD1 (orange). Left side: general view of P31-43 and NBD1 interaction. Upper right: detailed interaction pattern, highlighting the most important amino acids. Lower right: in silico NBD1/P31-43 complex compared to the original crystallographic positions of Tip 401 and ATP. b, Graphical view of the in silico sampling percentage of P31-43 against NBD1/NBD2 (left 10 panel), and of P31-43/4QA (4QA) against NBD1 (right panel). c-d, Surface plasmon resonance (SPR) analysis of rhNBD1 binding to P31-43 and P57-68 biotinylated peptides immobilized on SA sensor chip (c) and of increasing concentrations of P31-43 and P57-68 peptides 15 on rhNBD1 covalently bound to the CMS sensor chip (d).

For “α-gliadin peptide LGQQQPFPPQQPY (SEQ ID 1), induces an enterocyte stress response (P31-43 sequence of alpha-gliadin)”, the “TG2-catalyzed covalent interaction with NBD1” value (TG2 / NBD1) was “Ca2+-activated TG2 catalyzed covalent interactions between P31-43 and NBD1”, the IC50 (NBD1 ATPase activity) was roughly 50 µM and the “interaction with rhNBD1 in the flow phase” value ([1]; SPR, peptide immobilized on sensor chip) was “confirmed the predicted interaction”. The “SPR signal on immobilized rhNBD1” value ([1]; rhNBD1 immobilized on chip, different peptide concentrations) was “yielded a dose-dependent signal”.
